From PMC10054758, “A Structural-Reporter Group to Determine the Core Conformation of Sialyl Lewis^x Mimetics” (Molecules, 2023)
Like-named read-outs stand apart in the source and are kept apart here.

What was measured:
E-selectin [1] = target: T1, E-selectin (Homo sapiens, UniProt P16581); experiment: Microscale thermophoresis (MST) affinity measurement; format: binding; settings: for Kd: MST, 25 °C, labeled E-selectinSCR2
T1 construct: mixed 1:1 with a solution of 0.2 μM labeled E-SelectinSCR2; made in house
T1 sequence (P16581 22-301 limits assumed): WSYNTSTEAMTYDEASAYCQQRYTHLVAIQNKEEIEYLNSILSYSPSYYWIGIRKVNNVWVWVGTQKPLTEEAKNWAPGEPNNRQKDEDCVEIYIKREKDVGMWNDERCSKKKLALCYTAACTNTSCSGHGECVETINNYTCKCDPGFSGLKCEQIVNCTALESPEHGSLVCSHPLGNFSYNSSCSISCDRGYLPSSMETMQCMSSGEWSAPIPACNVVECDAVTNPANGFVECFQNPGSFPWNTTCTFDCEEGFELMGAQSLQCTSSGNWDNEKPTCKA
Procedure: E-selectin production (cloning, transfection, expression, and purification) and labeling were previously described for the E-selectinSCR6-IgGFc construct and for the E-selectinSCR2 construct.
E-selectinLEC2 was labeled using the amine reactive protein labeling kit BLUE-NHS as described in the Supporting Information. Buffer exchange and labeling were performed according to the manufacturer’s protocol. […] The labeled protein was dialyzed over night against assay buffer (10 mM HEPES pH 7.4, 150 mM NaCl, 1 mM CaCl2) using Slide-A-Lyzer dialysis cassettes (10 kDa MWCO). Protein concentration was determined by HPLC-UV against a BSA standard.
Microscale thermophoresis (MST) experiments were carried out at 25 °C with 100% LED power, 50% laser power, a laser on time of 30 s, and a laser off time of 5 sec using standard treated capillaries. Ligands were dissolved in assay buffer supplemented with 0.05% v/v Tween20 and titrated 1:1 for a total of 16 dilution steps. The dilution series of ligand was mixed 1:1 with a solution of 0.2 μM labeled E-SelectinSCR2 and incubated for 10 min at room temperature before measurement. Datapoints were normalized using the bound and unbound borders achieved by NanoTemper Analysis 1.2.205 software (NanoTemper Technologies GmbH, Munich, Germany) and analyzed/illustrated with GraphPad Prism 5.0 (GraphPad Software, La Jolla, CA, USA). The measurements were globally fitted using Equation (1) for single site binding. (1) PL=(CP+CL+KD) - (CP+CL+KD) - 4CPCL/2CP where [PL] is the protein–ligand complex concentration and KD is the dissociation constant. CP represents the total concentration of protein and CL the total concentration of ligand.

E-selectin [2] = target: T1, E-selectin; settings: literature data; cited from earlier work
E-selectin [3] = target: T1, E-selectin; experiment: E-selectin affinity, literature data; format: binding; settings: for ΔG (Gibbs Free Energy): calculated ΔG = -RT lnKD from literature KD
E-selectin [4] = target: T1, E-selectin; design: method as in PMID 22782926; settings: binding to E-selectin; cited from earlier work

| Kd (E-selectin [1]) | Compound | further results |
| --- | --- | --- |
| 28 µM | C[C@@H]1O[C@@H](O[C@@H]2[C@@H](CCCc3ccccc3)CCC[C@H]2O[C@@H]2O[C@H](CO)[C@H](O)[C@H](O[C@@H](CC3CCCCC3)C(=O)O)[C@H]2O)[C@@H](O)[C@H](O)[C@@H]1O [2k] | – |
| 5.4 µM | CCCC[C@H]1CCC[C@@H](O[C@@H]2O[C@H](CO)[C@H](O)[C@H](O[C@@H](CC3CCCCC3)C(=O)O)[C@H]2O)[C@@H]1O[C@@H]1O[C@@H](C)[C@@H](O)[C@@H](O)[C@@H]1O [2i] | – |
| 51 µM | C[C@@H]1O[C@@H](O[C@H]2[C@H](O[C@@H]3O[C@H](CO)[C@H](O)[C@H](O[C@@H](CC4CCCCC4)C(=O)O)[C@H]3O)CCC[C@@H]2C(C)(C)C)[C@@H](O)[C@H](O)[C@@H]1O [2h] | – |
| – | CO[C@@H]1O[C@H](CO)[C@@H](O[C@@H]2O[C@H](CO)[C@H](O)[C@H](O[C@@H](CC3CCCCC3)C(=O)O)[C@H]2O)[C@H](O[C@@H]2O[C@@H](C)[C@@H](O)[C@@H](O)[C@@H]2O)[C@H]1NC(C)=O [compound 22] | Kd (E-selectin [2]): 280 µM |
| 18 µM | C[C@@H]1O[C@@H](O[C@@H]2[C@@H](Cc3ccccc3)CCC[C@H]2O[C@@H]2O[C@H](CO)[C@H](O)[C@H](O[C@@H](CC3CCCCC3)C(=O)O)[C@H]2O)[C@@H](O)[C@H](O)[C@@H]1O [2e] | – |
| 9.5 µM | C[C@@H]1O[C@@H](O[C@@H]2[C@@H](CC(F)(F)F)CCC[C@H]2O[C@@H]2O[C@H](CO)[C@H](O)[C@H](O[C@@H](CC3CCCCC3)C(=O)O)[C@H]2O)[C@@H](O)[C@H](O)[C@@H]1O [2n] | – |
| – | C[C@@H]1O[C@@H](OCCO[C@@H]2O[C@H](CO)[C@H](O)[C@H](O[C@@H](CC3CCCCC3)C(=O)O)[C@H]2O)[C@@H](O)[C@H](O)[C@@H]1O [compound 21, reference compound] | ΔG (Gibbs Free Energy) (E-selectin [3]): -3.148 kcal/mol; Kd (E-selectin [2]): 4920 µM |
| 6.8 µM | CC(C)[C@H]1CCC[C@@H](O[C@@H]2O[C@H](CO)[C@H](O)[C@H](O[C@@H](CC3CCCCC3)C(=O)O)[C@H]2O)[C@@H]1O[C@@H]1O[C@@H](C)[C@@H](O)[C@@H](O)[C@@H]1O [2d] | – |
| – | C[C@@H]1O[C@@H](O[C@@H]2CCCC[C@H]2O[C@@H]2O[C@H](CO)[C@H](O)[C@H](O[C@@H](CC3CCCCC3)C(=O)O)[C@H]2O)[C@@H](O)[C@H](O)[C@@H]1O [2a] | improvement of affinity (E-selectin [3]; GlcNAc replaced by (R,R)-cyclohexane-1,2-diol (22→2a)): five-fold; ΔG (Gibbs Free Energy) (E-selectin [3]): -5.75 kcal/mol; improvement of affinity (E-selectin [3]; compared to 21): 80 fold; ΔΔG (E-selectin [3]; relative to 21 (ΔΔG21→2a)): 2.603 kcal/mol |
| 31 µM | COCCOC[C@H]1CCC[C@@H](O[C@@H]2O[C@H](CO)[C@H](O)[C@H](O[C@@H](CC3CCCCC3)C(=O)O)[C@H]2O)[C@@H]1O[C@@H]1O[C@@H](C)[C@@H](O)[C@@H](O)[C@@H]1O [2l] | – |
| – | COC1OC(CO)C(OC2OC(CO)C(O)C(OC3(C(=O)O)CC(O)C(NC(C)=O)C(C(O)C(O)CO)O3)C2O)C(OC2OC(C)C(O)C(O)C2O)C1NC(C)=O (stereo not shown) [sLe^x (1), sialyl Lewis^x] | entropy term −TΔS° (E-selectin [4]): 5.4 kcal/mol; Kd (E-selectin [2]): 877 µM |
| 6 µM | CC(C)C[C@H]1CCC[C@@H](O[C@@H]2O[C@H](CO)[C@H](O)[C@H](O[C@@H](CC3CCCCC3)C(=O)O)[C@H]2O)[C@@H]1O[C@@H]1O[C@@H](C)[C@@H](O)[C@@H](O)[C@@H]1O [2m] | – |
| 4.3 µM | CCCCCC[C@H]1CCC[C@@H](O[C@@H]2O[C@H](CO)[C@H](O)[C@H](O[C@@H](CC3CCCCC3)C(=O)O)[C@H]2O)[C@@H]1O[C@@H]1O[C@@H](C)[C@@H](O)[C@@H](O)[C@@H]1O [2j] | ΔG (Gibbs Free Energy) (E-selectin [1]; calculated ΔG = -RT lnKD from MST KD): -7.321 kcal/mol; ΔΔG (E-selectin [1]; relative to 2a (ΔΔG2a→2b, ΔΔG2a→2j)): 1.57 kcal/mol |
| 14 µM | C[C@@H]1O[C@@H](O[C@@H]2[C@@H](CC3CCCCC3)CCC[C@H]2O[C@@H]2O[C@H](CO)[C@H](O)[C@H](O[C@@H](CC3CCCCC3)C(=O)O)[C@H]2O)[C@@H](O)[C@H](O)[C@@H]1O [2f] | – |
| 8.8 µM | C[C@@H]1O[C@@H](O[C@@H]2[C@@H](c3ccccc3)CCC[C@H]2O[C@@H]2O[C@H](CO)[C@H](O)[C@H](O[C@@H](CC3CCCCC3)C(=O)O)[C@H]2O)[C@@H](O)[C@H](O)[C@@H]1O [2g] | – |
